Data taken from ChEMBL document CHEMBL3779788, “Facile synthesis of 1,3-thiazolidin-4-ones as antitubercular agents” (Bioorg Med Chem Lett, 2016).
Converted amounts (≈) assume the structure as drawn.

Legend:
[1] = system: Mycobacterium bovis BCG str. ATCC 35743; assay: Antitubercular activity against dormant Mycobacterium bovis BCG ATCC 35743 assessed as growth inhibition at 3 ug/mL by NR assay; assay type: functional
[2] = system: Mycobacterium bovis BCG str. ATCC 35743; assay: Antitubercular activity against dormant Mycobacterium bovis BCG ATCC 35743 assessed as growth inhibition at 10 ug/mL by NR assay; assay type: functional
[3] = system: Mycobacterium tuberculosis; assay: Antitubercular activity against dormant Mycobacterium tuberculosis H37Ra assessed as growth inhibition at 30 ug/mL by XTT reduction menadione assay; assay type: functional; settings: read-out: GI
[4] = system: Mycobacterium tuberculosis; assay: Antitubercular activity against dormant Mycobacterium tuberculosis H37Ra assessed as growth inhibition at 10 ug/mL by XTT reduction menadione assay; assay type: functional; settings: read-out: GI
[5] = system: Mycobacterium tuberculosis; assay: Antitubercular activity against dormant Mycobacterium tuberculosis H37Ra assessed as growth inhibition at 3 ug/mL by XTT reduction menadione assay; assay type: functional; settings: read-out: GI
[6] = system: Mycobacterium bovis BCG str. ATCC 35743; assay: Antitubercular activity against dormant Mycobacterium bovis BCG ATCC 35743 assessed as growth inhibition at 30 ug/mL by NR assay; assay type: functional
[7] = (§1) Antitubercular activity against dormant Mycobacterium bovis BCG ATCC 35743 by NR assay; assay type: functional, Mycobacterium bovis BCG str. ATCC 35743
[8] = system: Mycobacterium bovis BCG str. ATCC 35743; assay: as §1; assay type: functional
[9] = system: Mycobacterium tuberculosis; assay: Antitubercular activity against dormant Mycobacterium tuberculosis H37Ra by XTT reduction menadione assay; assay type: functional, organism-based
[10] = Cytotoxicity against human MCF7 cells at 30 ug/mL by MTT assay; assay type: cell-based; settings: read-out: INH
[11] = Cytotoxicity against human MCF7 cells at 10 ug/mL by MTT assay; assay type: cell-based; settings: read-out: INH
[12] = Cytotoxicity against human MCF7 cells at 3 ug/mL by MTT assay; assay type: cell-based; settings: read-out: INH
[13] = Cytotoxicity against human A549 cells at 30 ug/mL by MTT assay; assay type: cell-based; settings: read-out: INH
[14] = Cytotoxicity against human A549 cells at 10 ug/mL by MTT assay; assay type: cell-based; settings: read-out: INH
[15] = Cytotoxicity against human A549 cells at 3 ug/mL by MTT assay; assay type: cell-based; settings: read-out: INH
[16] = Cytotoxicity against human HCT116 cells at 30 ug/mL by MTT assay; assay type: cell-based, HCT-116; settings: read-out: INH
[17] = Cytotoxicity against human HCT116 cells at 10 ug/mL by MTT assay; assay type: cell-based, HCT-116; settings: read-out: INH
[18] = Cytotoxicity against human HCT116 cells at 3 ug/mL by MTT assay; assay type: cell-based, HCT-116; settings: read-out: INH
Escherichia coli = assay: Antibacterial activity against Escherichia coli after 18 hrs by broth dilution method; assay type: functional, organism-based
Pseudomonas = assay: Antibacterial activity against Pseudomonas after 18 hrs by broth dilution method; assay type: functional, organism-based
Staphylococcus aureus = assay: Antibacterial activity against Staphylococcus aureus after 18 hrs by broth dilution method; assay type: functional, organism-based
Bacillus subtilis = assay: Antibacterial activity against Bacillus subtilis after 18 hrs by broth dilution method; assay type: functional, organism-based

Structure (SMILES)	growth inhibition (GI) [1] [%]	growth inhibition (GI) [2] [%]	inhibition of growth at 30 µg/mL [3] [%]	inhibition of growth at 10 µg/mL [4] [%]	inhibition of growth at 3 µg/mL [5] [%]	growth inhibition (GI) [6] [%]	IC50 [7] [µg/mL]	IC90 [8] [µg/mL]	IC50 [9] [µg/mL]	IC90 [9] [µg/mL]	cytotoxicity at 30 ug/mL [10] [%]	cytotoxicity at 10 ug/mL [11] [%]	cytotoxicity at 3 ug/mL [12] [%]	cytotoxicity at 30 ug/mL [13] [%]	cytotoxicity at 10 ug/mL [14] [%]	cytotoxicity at 3 ug/mL [15] [%]	cytotoxicity at 30 ug/mL [16] [%]	cytotoxicity at 10 ug/mL [17] [%]	cytotoxicity at 3 ug/mL [18] [%]	also measured
Cc1ccc(N2C(=O)CSC2c2ccccc2)cc1 (stereo not drawn)	61.6	4.5	-0.7	-24.3	-21.6	39.7	> 30	> 30	> 30	> 30	29.2	8.4	-40.6	-15.9	0	0	21.6	20.5	16.1	
O=C1CSC(c2ccc(O)cc2)N1c1ccc(Cl)cc1 (stereo not drawn)	6	-15.5	16.3	10.3	29.8	-2.2	> 30	> 30	> 30	> 30	43.4	32.2	24.9	0	0	0	20.1	10.4	4.3	
Cc1ccc(C2SCC(=O)N2c2ccccc2)cc1 (stereo not drawn)	2	0.2	17.8	31	12	16.6	> 30	> 30	> 30	> 30	40.7	16.9	0	27.8	-12.6	-10.3	-9.8	-11.9	-25.8	
O=C1CSC(c2ccccc2)N1c1ccc(Br)cc1 (stereo not drawn)	-14	-2.7	-0.7	-27.5	-6.9	-35.7	> 30	> 30	> 30	> 30	23.8	9.4	-2.6	0	0	0	22	8.2	-7.3	
COc1ccc(C2SCC(=O)N2c2ccc(Cl)cc2)cc1 (stereo not drawn)	5.3	-0.7	9.5	18	37.6	1.6	> 30	> 30	> 30	> 30	38.6	0	0	0	0	-4	12	-2.3	-2.9	
O=C1CSC(c2ccc(F)cc2)N1c1ccc(Cl)cc1 (stereo not drawn)	-3.2	-3.8	30.2	-14.6	8.8	-1.3	> 30	> 30	> 30	> 30	43.7	38.1	32.2	4.9	0	-7	50.4	18.6	9.4	
NC[C@H]1O[C@H](O[C@H]2[C@H](O)[C@@H](O[C@H]3O[C@H](CO)[C@@H](O)[C@H](N)[C@H]3O)[C@H](N)C[C@@H]2N)[C@H](O)[C@@H](O)[C@@H]1O [KANAMYCIN]																				IC50 (Escherichia coli): 1.62 µg/mL (≈ 3.34 µM); MIC (Escherichia coli): 0.67 µg/mL (≈ 1.38 µM); IC50 (Pseudomonas): 0.49 µg/mL (≈ 1.01 µM); MIC (Pseudomonas): 0.012 µg/mL (≈ 0.0248 µM); IC50 (Staphylococcus aureus): > 30 µg/mL; MIC (Staphylococcus aureus): 16 µg/mL (≈ 33 µM); IC50 (Bacillus subtilis): 1.35 µg/mL (≈ 2.79 µM); MIC (Bacillus subtilis): 0.25 µg/mL (≈ 0.516 µM)
CO[C@H]1/C=C/O[C@@]2(C)Oc3c(C)c(O)c4c(O)c(c(/C=N/N5CCN(C)CC5)c(O)c4c3C2=O)NC(=O)/C(C)=C\C=C\[C@H](C)[C@H](O)[C@@H](C)[C@@H](O)[C@@H](C)[C@H](OC(C)=O)[C@@H]1C [RIFAMPIN]							0.0016 (≈ 0.00194 µM)	0.041 (≈ 0.0498 µM)		0.043 (≈ 0.0523 µM)										
Cc1ccc(C2SCC(=O)N2c2ccc(C)cc2)cc1 (stereo not drawn)	-12.5	-1.2	-27.4	-26.4	-18.5	-1.9	> 30	> 30	> 30	> 30	19.6	16.4	-9.2	-13.4	0	8.6	45	16.7	9.7	
CC1(C)S[C@@H]2[C@H](NC(=O)[C@H](N)c3ccccc3)C(=O)N2[C@H]1C(=O)O [AMPICILLIN]																				IC50 (Escherichia coli): 1.46 µg/mL (≈ 4.18 µM); MIC (Escherichia coli): 0.41 µg/mL (≈ 1.17 µM); IC50 (Pseudomonas): 4.36 µg/mL (≈ 12.5 µM); MIC (Pseudomonas): 2.83 µg/mL (≈ 8.1 µM); IC50 (Staphylococcus aureus): 1 µg/mL (≈ 2.86 µM); MIC (Staphylococcus aureus): 0.12 µg/mL (≈ 0.343 µM); IC50 (Bacillus subtilis): 10.3 µg/mL (≈ 29.5 µM); MIC (Bacillus subtilis): 5.89 µg/mL (≈ 16.9 µM)
O=C1CSC(c2ccc(Cl)cc2)N1c1ccc(Cl)cc1 (stereo not drawn)	-20.2	0	-19.8	24.1	11.8	-0.8	> 30	> 30	> 30	> 30	14.8	16.6	14.5	0	0	0	15.9	1.3	-8.1	
Cc1ccc(N2C(=O)CSC2c2ccc([N+](=O)[O-])cc2)cc1 (stereo not drawn)	-2	-6.1	14.4	-5.4	21.2	-7.1	> 30	> 30	> 30	> 30	45.6	38.8	34.6	-10.3	0	-11.3	-12.4	-14.6	-16.1	
NNC(=O)c1ccncc1 [ISONIAZID]							0.0023 (≈ 0.0168 µM)	0.045 (≈ 0.328 µM)		0.075 (≈ 0.547 µM)										
